{"source": "paper PMC5391016", "about": "(PLoS ONE, 2017)", "system": "T1, Epac1-camps-PDE4A1", "T1 construct": "gene RAPGEF3", "settings": "read-out: pEC50 5.56 ± 0.08 (converted); 10 mM Tris, 10 mM MgCl2; apparent affinity; PDE catalytically impaired", "data": [{"smiles": "Nc1ncnc2c1ncn2[C@@H]1O[C@@H]2COP(=O)(O)O[C@H]2[C@H]1O", "note": "[cAMP]", "values": [{"measurement": "EC50", "result": 2700, "unit": "nM"}]}]}
